Reference: ChEMBL document CHEMBL3792287, “Antiplasmodial phloroglucinol derivatives from Syncarpia glomulifera” (Bioorg Med Chem, 2016)

How the values were obtained:
Plasmodium falciparum = assay: Antiplasmodial activity against Plasmodium falciparum Dd2 incubated under low oxygen conditions after 72 hrs by SYBR green assay; format: functional, organism-based; conditions: Dd2, 72 h
HEK293 [1] = assay: Cytotoxicity against HEK293 cells assessed as reduction in cell viability up to 3.125 uM after 24 hrs by resazurin dye based fluorescence assay; conditions: human, hek293, 24 h
[2] = Cytotoxicity against HEK293 cells assessed as reduction in cell viability at 50 uM after 24 hrs by resazurin dye based fluorescence assay; conditions: human, read-out: INH
HEK293 [3] = assay: Cytotoxicity against HEK293 cells assessed as reduction in cell viability at 100 uM after 24 hrs by resazurin dye based fluorescence assay; conditions: human, hek293, 24 h

CCCCCC(=O)c1c(O)cc(O)cc1O
IC50 (Plasmodium falciparum): > 80 µM

CCCCCC(=O)c1c(O)cc(O)c2c1OC1=C(C(=O)C(C)(C)C(=O)C1(C)C)C2CC(C)C (racemic)
IC50 (Plasmodium falciparum): 0.1 µM | Activity (HEK293 [1]): Non-toxic | cytotoxicity at 24 h, 50 µM [2]: 58%

CC(C)=CCCC1=CCC2(C(=O)C(C)(C)C(=O)C(C)(C)C2=O)C(CC(C)C)C1 (racemic)
IC50 (Plasmodium falciparum): 3.81 µM | Activity (HEK293 [3]): Non-toxic

C[C@@H]1CC[C@H]2[C@@H](C)C(=O)O[C@@H]3O[C@@]4(C)CC[C@@H]1[C@]32OO4 [ARTEMISININ]
IC50 (Plasmodium falciparum): 0.0062 µM

C=C(C)[C@@H]1CC[C@]2(C(=O)O)CC[C@]3(C)[C@H](CC[C@@H]4[C@@]5(C)CC[C@H](O)C(C)(C)[C@@H]5CC[C@]43C)[C@@H]12 [BETULINIC ACID]
IC50 (Plasmodium falciparum): 3.44 µM

CC(=O)O[C@H]1CC[C@]2(C)[C@H]3CC=C4[C@@H]5[C@@H](C)[C@H](C)CC[C@]5(C(=O)O)CC[C@@]4(C)[C@]3(C)CC[C@H]2C1(C)C [O-ACETYLURSOLIC ACID]
IC50 (Plasmodium falciparum): 12.1 µM

C[C@H]1[C@H](C)CC[C@]2(C(=O)O)CC[C@]3(C)C(=CC[C@@H]4[C@@]5(C)CC[C@H](O)C(C)(C)[C@@H]5CC[C@]43C)[C@H]12 [URSOLIC ACID]
IC50 (Plasmodium falciparum): > 40 µM
